Assay [1] has as its target T1, β3-receptor from rat adipose tissue (Rattus norvegicus, UniProt P26255).
T1 construct: from tissue; host or cells: rat adipose tissue
The experiment in a line: Binding at the β3-receptor. Here is the method: Indeed, certain compounds have been tested. The 1-OH metabolites of N-didesmethylsibutramine (1-OH-DDMS) were tested to determine thir ability to functional uptake of serotonin (5-HT), norepinephrine (NE), or dopamine (DA), into synaptosomes prepared from rat whole brain, hypothalamus, or corpora striata, respectively. In addition, binding was determined at the nonselective muscarinic receptor and the β3-receptor from rat cerebral cortex and rat adipose tissue, respectively. The 1-OH-DDMS compounds tested contain two chiral centers (C2, C4): (2R,4R) (2S,4R), (2R,4S), and (2S,4S).
(§1) The 1-OH metabolites of N-desmethylsibutramine (DMS) were also tested to determine their ability to inhibit functional uptake of serotonin (5-HT), norepinephrine (NE), or dopamine (DA), into synaptosomes prepared from rat whole brain, hypothalamus, or corpora striata, respectively. In addition, binding was determined at the nonselective muscarinic receptor and the β3-receptor from rat cerebral cortex and rat adipose tissue, respectively. The 1-OH-DMS compounds tested contained two chiral centers (C2, C4): (2R,4R), (2S,4S), (2R,4S), and (2S,4R).

In assay [2] the target is T2, functional uptake of norepinephrine (NE) into synaptosomes prepared from rat hypothalamus (Rattus norvegicus, UniProt Q63380).
T2 construct: into synaptosomes prepared from rat whole brain, hypothalamus, or corpora striata, respectively; from tissue; host or cells: rat hypothalamus synaptosomes
Briefly: Functional uptake of norepinephrine (NE) into synaptosomes. The settings on record: 10 concentrations in duplicate. It is filed as biochemical. Here is the method:
(§2) The 1-OH metabolites of N-didesmethylsibutramine (1-OH-DDMS) were tested to determine thir ability to functional uptake of serotonin (5-HT), norepinephrine (NE), or dopamine (DA), into synaptosomes prepared from rat whole brain, hypothalamus, or corpora striata, respectively. In addition, binding was determined at the nonselective muscarinic receptor and the β3-receptor from rat cerebral cortex and rat adipose tissue, respectively. The 1-OH-DDMS compounds tested contain two chiral centers (C2, C4): (2R,4R) (2S,4R), (2R,4S), and (2S,4S).
as §1

The target of assay [3] is T3, functional uptake of serotonin (5-HT) into synaptosomes prepared from rat whole brain (Rattus norvegicus, UniProt P31652).
T3 construct: into synaptosomes prepared from rat whole brain, hypothalamus, or corpora striata, respectively; from tissue; host or cells: rat whole brain synaptosomes
The experiment in a line: Functional uptake of serotonin (5-HT) into synaptosomes. The settings on record: for IC50: rat whole brain synaptosomes, 10 concentrations in duplicate; for inhibition at 10 µM: read-out: inhibition of 5-HT uptake (no IC50 determined). It counts as biochemical. Here is the method: as §2, §1

Assay [4] deals with T4, functional uptake of dopamine (DA) into synaptosomes prepared from rat corpora striata (Rattus norvegicus, UniProt P23977).
T4 construct: into synaptosomes prepared from rat whole brain, hypothalamus, or corpora striata, respectively; from tissue; host or cells: rat corpora striata synaptosomes
Briefly: Functional uptake of dopamine (DA) into synaptosomes. It is filed as biochemical. As to conditions: 10 concentrations in duplicate. Here is the method:
as §2, §1

[5] abbreviates: read-out: IC50 Values (nM) for 1-OH Metabolites of DDMS in Functional Uptake Assays: NE.
Where [6] appears, read: read-out: IC50 Values (nM) for 1-OH Metabolites of DDMS in Functional Uptake Assays: 5-HT.
Setting [7] is: read-out: IC50 Values (nM) for 1-OH Metabolites of DDMS in Functional Uptake Assays: DA.
Setting [8] is: read-out: IC50 Values (nM) for 1-OH Metabolites of DMS in Functional Uptake Assays: NE.
Setting [9] is: read-out: IC50 Values (nM) for 1-OH Metabolites of DMS in Functional Uptake Assays: DA.
The mark [10] stands for this setting: read-out: IC50 Values (nM) for 1-OH Metabolites of DMS in Functional Uptake Assays: 5-HT.

The inhibition is how much of the control response was suppressed. What is called IC50 is the midpoint of a concentration-inhibition curve.

Read-outs that look alike come from different tables or passages of the source.

T4 sequence (P23977 whole entry): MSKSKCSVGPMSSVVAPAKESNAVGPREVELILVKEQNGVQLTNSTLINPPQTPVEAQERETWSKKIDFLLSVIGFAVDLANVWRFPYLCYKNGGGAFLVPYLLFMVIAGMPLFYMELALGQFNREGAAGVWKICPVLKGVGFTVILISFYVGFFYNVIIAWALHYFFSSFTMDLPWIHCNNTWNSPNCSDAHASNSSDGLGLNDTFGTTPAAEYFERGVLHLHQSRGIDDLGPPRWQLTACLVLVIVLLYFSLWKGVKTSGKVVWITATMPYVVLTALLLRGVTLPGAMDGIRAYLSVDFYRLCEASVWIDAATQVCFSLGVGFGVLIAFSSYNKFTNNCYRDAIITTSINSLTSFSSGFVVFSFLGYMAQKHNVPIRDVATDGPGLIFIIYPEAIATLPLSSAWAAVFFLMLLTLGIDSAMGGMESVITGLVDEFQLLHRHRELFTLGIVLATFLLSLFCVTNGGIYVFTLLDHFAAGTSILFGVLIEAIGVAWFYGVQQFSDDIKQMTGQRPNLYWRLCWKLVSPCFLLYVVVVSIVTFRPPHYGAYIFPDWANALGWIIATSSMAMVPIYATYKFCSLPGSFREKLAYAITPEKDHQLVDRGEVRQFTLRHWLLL
T2 sequence (Q63380 1-617): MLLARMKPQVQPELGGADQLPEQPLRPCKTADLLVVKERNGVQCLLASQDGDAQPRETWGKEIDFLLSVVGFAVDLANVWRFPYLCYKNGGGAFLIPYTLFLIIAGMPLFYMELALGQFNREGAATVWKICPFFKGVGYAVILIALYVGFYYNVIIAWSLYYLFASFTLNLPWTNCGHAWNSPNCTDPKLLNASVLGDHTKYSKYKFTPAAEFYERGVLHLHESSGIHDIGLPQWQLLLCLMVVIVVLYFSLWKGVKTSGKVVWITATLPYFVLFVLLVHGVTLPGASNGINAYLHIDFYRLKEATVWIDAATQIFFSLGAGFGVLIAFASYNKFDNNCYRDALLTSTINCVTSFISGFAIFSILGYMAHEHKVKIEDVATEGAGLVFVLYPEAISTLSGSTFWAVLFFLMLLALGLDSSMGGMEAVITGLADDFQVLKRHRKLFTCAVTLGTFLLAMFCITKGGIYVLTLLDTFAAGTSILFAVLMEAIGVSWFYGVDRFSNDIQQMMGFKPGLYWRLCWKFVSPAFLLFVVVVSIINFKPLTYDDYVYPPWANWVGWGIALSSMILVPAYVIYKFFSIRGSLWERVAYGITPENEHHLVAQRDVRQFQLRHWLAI
T3 sequence (P31652 whole entry): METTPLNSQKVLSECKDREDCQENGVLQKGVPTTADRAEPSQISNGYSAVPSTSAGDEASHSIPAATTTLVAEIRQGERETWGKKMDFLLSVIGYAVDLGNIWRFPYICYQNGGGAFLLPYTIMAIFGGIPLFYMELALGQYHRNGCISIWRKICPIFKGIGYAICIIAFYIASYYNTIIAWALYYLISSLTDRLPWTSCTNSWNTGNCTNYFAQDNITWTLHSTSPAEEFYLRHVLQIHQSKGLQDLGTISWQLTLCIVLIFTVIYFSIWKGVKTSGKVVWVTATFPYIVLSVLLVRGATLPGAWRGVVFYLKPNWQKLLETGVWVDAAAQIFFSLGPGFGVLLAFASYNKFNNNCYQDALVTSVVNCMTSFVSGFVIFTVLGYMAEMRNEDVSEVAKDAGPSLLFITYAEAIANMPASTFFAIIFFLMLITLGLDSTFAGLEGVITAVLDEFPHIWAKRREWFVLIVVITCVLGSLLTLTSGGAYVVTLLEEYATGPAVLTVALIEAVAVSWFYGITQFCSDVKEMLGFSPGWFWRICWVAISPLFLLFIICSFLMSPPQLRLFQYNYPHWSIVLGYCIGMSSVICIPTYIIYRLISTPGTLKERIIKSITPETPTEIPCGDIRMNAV
T1 sequence (P26255 whole entry): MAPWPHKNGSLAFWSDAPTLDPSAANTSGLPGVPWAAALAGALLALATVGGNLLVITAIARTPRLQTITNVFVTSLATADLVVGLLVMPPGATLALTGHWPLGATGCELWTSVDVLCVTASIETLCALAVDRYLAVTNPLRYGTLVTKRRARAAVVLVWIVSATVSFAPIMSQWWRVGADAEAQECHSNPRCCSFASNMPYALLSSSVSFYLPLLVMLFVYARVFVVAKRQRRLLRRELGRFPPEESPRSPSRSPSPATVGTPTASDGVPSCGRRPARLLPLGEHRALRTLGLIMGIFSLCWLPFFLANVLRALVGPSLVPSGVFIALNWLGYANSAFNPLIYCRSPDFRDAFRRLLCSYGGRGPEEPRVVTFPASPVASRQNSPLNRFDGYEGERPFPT

Regarding `C[C@H](CO)C[C@H](N)C1(c2ccc(Cl)cc2)CCC1` [(2S,4S)-1-OH-DDMS, (2S, 4S)-4-Amino-4-[1-(4-chlorophenyl)cyclobutyl]-2-methyl-butan-1-ol], in assay [1] (read-out: inhibition at the β3-receptor (1-OH-DDMS compounds)), the inhibition at 10 µM was 30%. Further, the IC50 was found to be 150 nM in assay [2] (setting [5]), 1200 nM in assay [3] (setting [6]) and 33 nM in assay [4] (setting [7]).

In the case of `C[C@@H](CO)C[C@H](N)C1(c2ccc(Cl)cc2)CCC1` [(2R,4S)-1-OH-DDMS, (2R, 4S)-4-Amino-4-[1-(4-chlorophenyl)cyclobutyl]-2-methyl-butan-1-ol], the values for the IC50 in assay [2] (setting [5]), in assay [3] (setting [6]) and in assay [4] (setting [7]) were 71 nM, 2000 nM and 110 nM, respectively.

For `C[C@@H](CO)C[C@@H](N)C1(c2ccc(Cl)cc2)CCC1` [(2R,4R)-1-OH-DDMS, (2R, 4R)-4-Amino-4-[1-(4-chlorophenyl)cyclobutyl]-2-methyl-butan-1-ol], the figures for the IC50 in assay [2] (setting [5]), in assay [3] (setting [6]) and in assay [4] (setting [7]) were 4.7 nM, 34 nM and 27 nM, respectively.

For `CN[C@@H](C[C@@H](C)CO)C1(c2ccc(Cl)cc2)CCC1` [(2R,4S)-1-OH-DMS, (2R, 4S)-4-Methylamino-4-[1-(4-chlorophenyl)cyclobutyl]-2-methyl-butan-1-ol], the IC50 was 74 nM in assay [2] (setting [8]) and 2500 nM in assay [4] (setting [9]). In addition, the inhibition at 10 µM in assay [3] is under 50%.

With `CN[C@@H](C[C@H](C)CO)C1(c2ccc(Cl)cc2)CCC1` [(2S,4S)-1-OH-DMS, (2S, 4S)-4-Methylamino-4-[1-(4-chlorophenyl)cyclobutyl]-2-methyl-butan-1-ol], the IC50 is 250 nM in assay [2] (setting [8]) and 430 nM in assay [4] (setting [9]). In addition, the inhibition at 10 µM in assay [3] is under 50%.

As for `CN[C@H](C[C@@H](C)CO)C1(c2ccc(Cl)cc2)CCC1` [(2R,4R)-1-OH-DMS], the IC50 in assay [2] (setting [8]) came to 2.2 nM; in assay [3] (setting [10]), 12 nM; in assay [4] (setting [9]), 19 nM.

As for `C[C@H](CO)C[C@@H](N)C1(c2ccc(Cl)cc2)CCC1` [(2S,4R)-1-OH-DDMS, (2S,4R)-4-Amino-4-[1-(4-chlorophenyl)cyclobutyl]-2-methyl-butan-1-ol], the IC50 in assay [2] (setting [5]) amounted to 11 nM; in assay [3] (setting [6]) it was 65 nM; in assay [4] (setting [7]), 37 nM.

On to `CN[C@H](C[C@H](C)CO)C1(c2ccc(Cl)cc2)CCC1` [(2S,4R)-1-OH-DMS, (2S, 4R)-4-Methylamino-4-[1-(4-chlorophenyl)cyclobutyl]-2-methyl-butan-1-ol], for which, in assay [1] (read-out: inhibition at the β3-receptor (1-OH-DMS compounds)), the inhibition at 10 µM worked out at 24%. Moreover, the IC50 was 9.3 nM in assay [2] (setting [8]), 160 nM in assay [3] (setting [10]) and 37 nM in assay [4] (setting [9]).

The record behind these values is patent publication US20020115727A1, “Synthesis, methods of using, and compositions of hydroxylated cyclobutylalkylamines” (priority 2000, published 2002).
